Data taken from ChEMBL document CHEMBL1201862, “PubChem BioAssay data set” (2004).
Activity calls are given as the source filed them.

Assays:
[1] = biological target: Mitogen-activated protein kinase 13 (Homo sapiens, UniProt O15264); type: functional
[2] = biological target: Serine/threonine-protein kinase Chk2 (Homo sapiens, UniProt O96017); type: functional;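 note: CHEK2 entry within a kinome-wide screening panel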
[3] = biological target: Serine/threonine-protein kinase Chk1 (Homo sapiens, UniProt O14757); type: functional;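 note: measured as one member of a kinome-wide kinase profiling panel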
[4] = biological target: cAMP-dependent protein kinase catalytic subunit alpha (Homo sapiens, UniProt P17612); type: functional
[5] = biological target: MAP/microtubule affinity-regulating kinase 3 (Homo sapiens, UniProt P27448); type: functional;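 note: MARK3 affinity measured as one member of a kinome panel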
[6] = biological target: Protein kinase C delta type (Homo sapiens, UniProt Q05655); type: functional
Aurora kinase A = Aurora kinase A (Homo sapiens, UniProt O14965); type: functional;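 note: value from the Navigating the Kinome kinase panel profiling, panel entry STK6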
[7] = biological target: Ribosomal protein S6 kinase alpha-3 (Homo sapiens, UniProt P51812); type: functional;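 note: measured within a kinome-wide profiling panel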
[8] = biological target: C-X-C chemokine receptor type 5 (Homo sapiens, UniProt P32302); assay: CXCR5 receptor antagonists, SAR follow-up, selectivity assay for CCR6 antagonist project, cell-based, beta-arrestin, luminescence, CHO-K1 PathHunter (AID 540340); type: functional
[9] = biological target: C-C chemokine receptor type 6 (Homo sapiens, UniProt P51684); assay: CCR6 receptor antagonists, SAR follow-up, cell-based, luminescent beta-arrestin readout (AID 540334); type: functional
Chain of C-C chemokine receptor type 6 (P51684 whole entry): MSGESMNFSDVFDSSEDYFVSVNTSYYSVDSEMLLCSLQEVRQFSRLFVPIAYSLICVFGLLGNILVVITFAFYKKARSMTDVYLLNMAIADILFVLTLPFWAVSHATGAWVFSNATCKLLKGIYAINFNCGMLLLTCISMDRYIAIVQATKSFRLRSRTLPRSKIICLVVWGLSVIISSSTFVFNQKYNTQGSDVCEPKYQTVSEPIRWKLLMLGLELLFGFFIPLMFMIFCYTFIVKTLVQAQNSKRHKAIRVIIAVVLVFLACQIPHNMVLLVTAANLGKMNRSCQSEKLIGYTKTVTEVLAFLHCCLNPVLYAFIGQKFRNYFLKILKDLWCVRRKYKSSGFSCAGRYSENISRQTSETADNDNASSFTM

[10] = inhibitors of intracellular T. cruzi replication, confirmation, NIH3T3 host cells, beta-gal luminescence (AID 2044); type: functional, cell-based;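 note: intracellular parasites grown in NIH/3T3 mouse fibroblasts as host cells; luminescent beta-galactosidase reporter signal from transgenic T. cruzi replicating inside host cells; inhibitors lower the luminescence signal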
[11] = biological target: T1, Heat shock factor protein 1 (Mus musculus, UniProt P38532); assay: HSF1 potentiators in luciferase reporter cells, confirmation, cell-based, NIH3T3, luminescence, dose retest (AID 435004); type: functional;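 note: stress induced by proteasome inhibitor MG132 added 30 min after compound; luciferase reporter driven by HSF1 response element in NIH3T3 cells; actives raise luminescence as potentiators of the MG132 stress response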
T1 sequence (P38532 whole entry): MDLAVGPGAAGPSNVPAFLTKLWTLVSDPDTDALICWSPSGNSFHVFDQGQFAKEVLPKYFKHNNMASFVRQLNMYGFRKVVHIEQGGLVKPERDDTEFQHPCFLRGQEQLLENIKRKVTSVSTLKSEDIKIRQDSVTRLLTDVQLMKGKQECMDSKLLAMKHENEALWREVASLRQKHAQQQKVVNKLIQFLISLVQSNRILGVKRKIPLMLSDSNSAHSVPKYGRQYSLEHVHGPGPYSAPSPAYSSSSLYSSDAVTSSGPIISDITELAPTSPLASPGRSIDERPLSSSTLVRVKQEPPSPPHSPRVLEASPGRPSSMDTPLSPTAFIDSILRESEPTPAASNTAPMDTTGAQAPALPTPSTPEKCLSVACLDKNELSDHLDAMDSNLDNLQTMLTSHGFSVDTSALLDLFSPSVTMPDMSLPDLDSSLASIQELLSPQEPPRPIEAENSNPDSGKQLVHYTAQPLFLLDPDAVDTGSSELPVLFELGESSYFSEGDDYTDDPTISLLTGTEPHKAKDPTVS

Protein RecA = biological target: T2, Protein RecA (Mycobacterium tuberculosis, UniProt P9WHJ3); assay: Fluorescence Cell-Free Homogeneous Dose Retest to Identify Inhibitors of RecA-Intein Splicing Activity. [Related pubchem assays (depositor defined):AID2097, AID2223, AID489010, AID492950]; type: functional
T2 sequence (P9WHJ3 whole entry): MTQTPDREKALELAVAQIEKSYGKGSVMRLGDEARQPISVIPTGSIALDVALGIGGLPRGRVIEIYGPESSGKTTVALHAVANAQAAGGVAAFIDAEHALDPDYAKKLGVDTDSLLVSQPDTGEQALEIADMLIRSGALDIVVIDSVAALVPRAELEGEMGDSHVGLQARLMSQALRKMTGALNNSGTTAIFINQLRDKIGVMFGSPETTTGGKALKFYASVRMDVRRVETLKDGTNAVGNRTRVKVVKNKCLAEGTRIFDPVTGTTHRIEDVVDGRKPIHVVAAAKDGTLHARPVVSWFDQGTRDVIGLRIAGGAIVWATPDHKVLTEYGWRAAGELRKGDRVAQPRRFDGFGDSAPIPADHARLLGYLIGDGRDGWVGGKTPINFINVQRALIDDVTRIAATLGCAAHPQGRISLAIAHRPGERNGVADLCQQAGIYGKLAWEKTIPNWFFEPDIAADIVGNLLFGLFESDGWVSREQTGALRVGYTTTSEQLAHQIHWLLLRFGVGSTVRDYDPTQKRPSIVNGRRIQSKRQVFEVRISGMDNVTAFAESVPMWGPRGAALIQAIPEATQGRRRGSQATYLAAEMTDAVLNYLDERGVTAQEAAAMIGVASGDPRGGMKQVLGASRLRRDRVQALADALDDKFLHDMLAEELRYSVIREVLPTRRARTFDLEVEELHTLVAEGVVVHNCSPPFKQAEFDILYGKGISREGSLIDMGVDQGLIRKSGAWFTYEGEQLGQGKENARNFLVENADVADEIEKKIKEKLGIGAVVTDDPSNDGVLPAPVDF

Apelin receptor = Apelin receptor (Homo sapiens, UniProt P35414); assay: APJ beta-arrestin recruitment antagonism, SAR follow-up, selectivity assay for CCR6 antagonist project, cell-based, luminescent, enzyme-fragment complementation (AID 588359); type: functional
[12] = biological target: T3, Replicative DNA helicase DnaB (Mycobacterium tuberculosis, UniProt P9WMR3); assay: DnaB intein splicing inhibitors, dose response, biochemical, cell-free fluorescence (AID 449749); type: functional
T3 sequence (P9WMR3 whole entry): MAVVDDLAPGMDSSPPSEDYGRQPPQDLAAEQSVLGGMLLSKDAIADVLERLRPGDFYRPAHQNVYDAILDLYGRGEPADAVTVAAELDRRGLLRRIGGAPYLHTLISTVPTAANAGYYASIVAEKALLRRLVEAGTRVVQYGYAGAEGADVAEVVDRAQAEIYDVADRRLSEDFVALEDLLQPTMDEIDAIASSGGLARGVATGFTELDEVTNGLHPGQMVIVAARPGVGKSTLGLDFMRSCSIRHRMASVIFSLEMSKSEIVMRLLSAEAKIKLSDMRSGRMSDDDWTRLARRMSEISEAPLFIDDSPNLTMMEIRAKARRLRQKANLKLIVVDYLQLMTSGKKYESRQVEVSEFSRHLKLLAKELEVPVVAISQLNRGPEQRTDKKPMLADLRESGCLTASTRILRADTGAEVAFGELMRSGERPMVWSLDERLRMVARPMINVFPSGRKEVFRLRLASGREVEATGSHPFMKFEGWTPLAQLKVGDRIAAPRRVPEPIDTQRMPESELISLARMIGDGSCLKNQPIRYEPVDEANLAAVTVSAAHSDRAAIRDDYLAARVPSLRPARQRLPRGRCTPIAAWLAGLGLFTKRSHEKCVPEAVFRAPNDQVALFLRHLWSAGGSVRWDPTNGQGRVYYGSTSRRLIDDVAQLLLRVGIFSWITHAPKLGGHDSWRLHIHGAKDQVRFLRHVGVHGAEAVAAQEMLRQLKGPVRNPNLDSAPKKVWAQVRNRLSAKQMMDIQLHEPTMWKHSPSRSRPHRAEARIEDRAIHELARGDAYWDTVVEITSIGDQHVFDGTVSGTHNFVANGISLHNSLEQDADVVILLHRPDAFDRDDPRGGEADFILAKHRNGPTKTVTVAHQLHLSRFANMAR

[13] = cytotoxicity toward NIH3T3 fibroblasts, dose response, counter-screen, cell-based, ATP luminescence, mouse fibroblasts (AID 2010); type: functional;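 note: cells exposed to compound for about 90 hours before reading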
[14] = biological target: Protein disulfide-isomerase (Homo sapiens, UniProt P07237); assay: PDI inhibitors, insulin aggregation turbidity, dose response, biochemical, absorbance, cherry-picked samples (AID 602350); type: functional
[15] = biological target: Vascular endothelial growth factor receptor 1 (Homo sapiens, UniProt P17948); type: functional;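 note: measured within a kinome-wide profiling panel, FLT1 as the panel member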
[16] = biological target: Tyrosine-protein kinase JAK2 (Homo sapiens, UniProt O60674); type: functional;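 note: JAK2 tested as one member of a kinase panel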
Activin receptor type-1 = Activin receptor type-1 (Homo sapiens, UniProt Q04771); assay: Navigating the Kinome. Panel member name: ACVR1; type: functional
[17] = biological target: Platelet-derived growth factor receptor alpha (Homo sapiens, UniProt P16234); assay: Navigating the Kinome. Panel member name: PDGFRA; type: functional
[18] = biological target: Leucine-rich repeat serine/threonine-protein kinase 2 (Homo sapiens, UniProt Q5S007); type: functional;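 note: value from a broad kinome-wide panel profiling study in which LRRK2 was one of the kinases tested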
[19] = biological target: Dual specificity protein kinase CLK2 (Homo sapiens, UniProt P49760); type: functional
Focal adhesion kinase 1 = Focal adhesion kinase 1 (Homo sapiens, UniProt Q05397); type: functional;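 note: measured as one member of a kinome panel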
[20] = biological target: Leukocyte tyrosine kinase receptor (Homo sapiens, UniProt P29376); assay: Navigating the Kinome. Panel member name: LTK; type: functional
LIM domain kinase 1 = LIM domain kinase 1 (Homo sapiens, UniProt P53667); assay: Navigating the Kinome. Panel member name: LIMK1; type: functional
[21] = biological target: Fibroblast growth factor receptor 1 (Homo sapiens, UniProt P11362); type: functional
[22] = biological target: Tyrosine-protein kinase Fyn (Homo sapiens, UniProt P06241); type: functional
[23] = biological target: Serine/threonine-protein kinase D3 (Homo sapiens, UniProt O94806); type: functional;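 note: determined within a kinase panel screen, with PRKCN as the panel member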
[24] = biological target: Hepatocyte growth factor receptor (Homo sapiens, UniProt P08581); type: functional;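 note: kinase panel profiling across the kinome, with MET as the panel member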
[25] = biological target: Protein kinase C theta type (Homo sapiens, UniProt Q04759); assay: Navigating the Kinome. Panel member name: PRKCQ; type: functional
Chain of Protein kinase C theta type (Q04759 whole entry, canonical isoform): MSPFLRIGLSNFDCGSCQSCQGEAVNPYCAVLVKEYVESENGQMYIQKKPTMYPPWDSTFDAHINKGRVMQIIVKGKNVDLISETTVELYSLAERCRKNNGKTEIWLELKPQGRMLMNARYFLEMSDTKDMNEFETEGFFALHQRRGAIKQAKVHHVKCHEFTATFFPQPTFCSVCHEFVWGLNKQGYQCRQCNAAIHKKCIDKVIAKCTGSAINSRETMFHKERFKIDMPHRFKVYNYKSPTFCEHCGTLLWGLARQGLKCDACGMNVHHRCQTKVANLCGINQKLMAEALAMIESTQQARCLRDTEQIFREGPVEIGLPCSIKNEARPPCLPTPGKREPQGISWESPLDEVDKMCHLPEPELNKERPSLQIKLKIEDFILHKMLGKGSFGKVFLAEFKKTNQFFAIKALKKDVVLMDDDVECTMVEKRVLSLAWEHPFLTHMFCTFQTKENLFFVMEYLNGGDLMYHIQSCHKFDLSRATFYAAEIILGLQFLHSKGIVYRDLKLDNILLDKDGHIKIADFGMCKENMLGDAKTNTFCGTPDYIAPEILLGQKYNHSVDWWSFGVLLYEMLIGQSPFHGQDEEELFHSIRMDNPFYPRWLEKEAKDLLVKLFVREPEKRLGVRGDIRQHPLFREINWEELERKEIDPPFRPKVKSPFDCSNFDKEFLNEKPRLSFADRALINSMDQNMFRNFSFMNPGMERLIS

[26] = biological target: Casein kinase I isoform alpha (Homo sapiens, UniProt P48729); type: functional
Chain of Casein kinase I isoform alpha (P48729 whole entry, canonical isoform): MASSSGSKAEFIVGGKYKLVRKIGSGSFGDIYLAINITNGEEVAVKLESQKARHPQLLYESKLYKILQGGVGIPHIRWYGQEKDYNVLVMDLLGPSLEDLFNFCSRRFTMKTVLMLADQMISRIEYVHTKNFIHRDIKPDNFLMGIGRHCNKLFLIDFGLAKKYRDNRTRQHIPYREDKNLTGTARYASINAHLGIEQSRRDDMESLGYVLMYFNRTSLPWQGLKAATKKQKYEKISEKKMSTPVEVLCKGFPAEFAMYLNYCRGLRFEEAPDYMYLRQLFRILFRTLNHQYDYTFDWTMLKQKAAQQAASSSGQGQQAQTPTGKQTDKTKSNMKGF

[27] = biological target: Cyclin-dependent kinase 5 (Homo sapiens, UniProt Q00535); type: functional;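 note: CDK5 measured as one member of a kinase profiling panel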
Chain of Cyclin-dependent kinase 5 (Q00535 whole entry): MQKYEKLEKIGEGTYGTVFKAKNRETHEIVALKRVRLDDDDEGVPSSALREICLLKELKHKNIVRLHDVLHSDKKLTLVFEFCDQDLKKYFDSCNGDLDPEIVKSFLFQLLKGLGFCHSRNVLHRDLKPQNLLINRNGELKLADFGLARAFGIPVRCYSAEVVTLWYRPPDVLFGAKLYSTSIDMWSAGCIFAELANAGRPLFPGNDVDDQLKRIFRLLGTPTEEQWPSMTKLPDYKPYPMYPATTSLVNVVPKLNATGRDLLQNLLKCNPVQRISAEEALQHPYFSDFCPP

[28] = biological target: Tyrosine-protein kinase receptor TYRO3 (Homo sapiens, UniProt Q06418); type: functional;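 note: TYRO3 value obtained as one member of a kinome-wide profiling panel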
Chain of Tyrosine-protein kinase receptor TYRO3 (Q06418 whole entry): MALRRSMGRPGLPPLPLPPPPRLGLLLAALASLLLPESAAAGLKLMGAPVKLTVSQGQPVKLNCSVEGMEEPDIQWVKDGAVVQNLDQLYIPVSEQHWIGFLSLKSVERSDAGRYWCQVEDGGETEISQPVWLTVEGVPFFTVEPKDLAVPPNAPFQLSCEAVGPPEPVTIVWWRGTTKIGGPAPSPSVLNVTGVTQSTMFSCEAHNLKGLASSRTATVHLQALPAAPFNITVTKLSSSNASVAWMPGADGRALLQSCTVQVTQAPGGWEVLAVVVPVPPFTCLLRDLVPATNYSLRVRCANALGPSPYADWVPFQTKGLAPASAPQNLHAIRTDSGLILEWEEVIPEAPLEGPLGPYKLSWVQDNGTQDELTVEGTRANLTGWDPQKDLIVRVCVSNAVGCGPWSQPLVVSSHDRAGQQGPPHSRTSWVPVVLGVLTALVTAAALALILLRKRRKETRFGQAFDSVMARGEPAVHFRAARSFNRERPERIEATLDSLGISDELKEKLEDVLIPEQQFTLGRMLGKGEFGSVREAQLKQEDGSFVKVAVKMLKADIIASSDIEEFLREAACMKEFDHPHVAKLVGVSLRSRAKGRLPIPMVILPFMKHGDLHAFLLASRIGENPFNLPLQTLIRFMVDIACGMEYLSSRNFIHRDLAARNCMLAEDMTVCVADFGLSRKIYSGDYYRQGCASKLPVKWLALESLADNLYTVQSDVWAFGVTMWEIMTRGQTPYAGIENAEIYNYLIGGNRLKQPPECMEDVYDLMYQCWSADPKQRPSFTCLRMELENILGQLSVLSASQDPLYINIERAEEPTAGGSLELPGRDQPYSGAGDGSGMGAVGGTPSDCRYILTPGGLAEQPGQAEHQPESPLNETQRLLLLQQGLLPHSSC

[29] = biological target: Rho-associated protein kinase 1 (Homo sapiens, UniProt Q13464); type: functional;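 note: measured within a broad kinome-wide panel profiling many kinases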
Chain of Rho-associated protein kinase 1 (Q13464 whole entry): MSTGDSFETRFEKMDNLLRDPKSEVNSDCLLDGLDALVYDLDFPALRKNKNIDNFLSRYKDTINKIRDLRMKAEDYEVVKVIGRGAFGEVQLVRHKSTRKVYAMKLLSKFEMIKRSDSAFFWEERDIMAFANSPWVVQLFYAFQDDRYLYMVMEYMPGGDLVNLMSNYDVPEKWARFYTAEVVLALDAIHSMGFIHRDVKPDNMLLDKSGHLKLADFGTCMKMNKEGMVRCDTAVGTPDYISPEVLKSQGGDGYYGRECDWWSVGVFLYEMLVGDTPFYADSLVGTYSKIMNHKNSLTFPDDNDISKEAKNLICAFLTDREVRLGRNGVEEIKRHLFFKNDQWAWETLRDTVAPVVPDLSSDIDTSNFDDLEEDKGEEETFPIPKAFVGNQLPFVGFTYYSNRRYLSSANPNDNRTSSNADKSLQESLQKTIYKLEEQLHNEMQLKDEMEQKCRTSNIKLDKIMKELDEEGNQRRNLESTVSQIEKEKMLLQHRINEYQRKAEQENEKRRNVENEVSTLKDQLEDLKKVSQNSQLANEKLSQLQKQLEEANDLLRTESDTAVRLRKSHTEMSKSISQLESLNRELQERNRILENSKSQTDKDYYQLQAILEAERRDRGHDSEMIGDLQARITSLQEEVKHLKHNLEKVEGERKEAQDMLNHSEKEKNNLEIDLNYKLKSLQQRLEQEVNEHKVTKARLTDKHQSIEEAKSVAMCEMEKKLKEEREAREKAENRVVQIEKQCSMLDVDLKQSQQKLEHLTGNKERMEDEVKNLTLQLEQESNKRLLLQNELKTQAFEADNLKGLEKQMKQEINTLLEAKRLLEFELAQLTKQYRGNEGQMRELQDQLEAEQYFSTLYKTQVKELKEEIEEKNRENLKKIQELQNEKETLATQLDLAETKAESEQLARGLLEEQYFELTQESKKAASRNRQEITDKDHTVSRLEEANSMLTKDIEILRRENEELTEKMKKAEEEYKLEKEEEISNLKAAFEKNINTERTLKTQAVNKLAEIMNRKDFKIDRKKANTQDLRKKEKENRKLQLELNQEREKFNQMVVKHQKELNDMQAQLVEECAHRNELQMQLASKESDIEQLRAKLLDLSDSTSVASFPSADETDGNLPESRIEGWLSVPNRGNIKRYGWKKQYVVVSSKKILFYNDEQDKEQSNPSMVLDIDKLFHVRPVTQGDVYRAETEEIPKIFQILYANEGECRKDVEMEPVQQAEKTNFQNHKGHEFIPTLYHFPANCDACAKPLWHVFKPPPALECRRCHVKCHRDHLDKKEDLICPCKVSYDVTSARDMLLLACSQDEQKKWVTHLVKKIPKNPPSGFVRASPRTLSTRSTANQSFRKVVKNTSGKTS

[30] = biological target: Mitogen-activated protein kinase 9 (Homo sapiens, UniProt P45984); type: functional;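 note: value from a kinome panel profiling assay, MAPK9 panel entry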
[31] = biological target: Macrophage-stimulating protein receptor (Homo sapiens, UniProt Q04912); assay: Navigating the Kinome. Panel member name: MST1R; type: functional
[32] = biological target: Tyrosine-protein kinase Lck (Homo sapiens, UniProt P06239); type: functional;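 note: lck was assayed as one member of a kinase panel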
[33] = biological target: Mitogen-activated protein kinase kinase kinase kinase 2 (Homo sapiens, UniProt Q12851); type: functional;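 note: measured as one member of a kinome-wide kinase panel, with MAP4K2 as the panel entry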
[34] = biological target: High affinity nerve growth factor receptor (Homo sapiens, UniProt P04629); type: functional;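 note: NTRK1 tested as one member of a kinome-wide profiling panel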
[35] = biological target: Dual specificity mitogen-activated protein kinase kinase 2 (Homo sapiens, UniProt P36507); assay: Navigating the Kinome. Panel member name: MAP2K2; type: functional
Chain of Dual specificity mitogen-activated protein kinase kinase 2 (P36507 whole entry): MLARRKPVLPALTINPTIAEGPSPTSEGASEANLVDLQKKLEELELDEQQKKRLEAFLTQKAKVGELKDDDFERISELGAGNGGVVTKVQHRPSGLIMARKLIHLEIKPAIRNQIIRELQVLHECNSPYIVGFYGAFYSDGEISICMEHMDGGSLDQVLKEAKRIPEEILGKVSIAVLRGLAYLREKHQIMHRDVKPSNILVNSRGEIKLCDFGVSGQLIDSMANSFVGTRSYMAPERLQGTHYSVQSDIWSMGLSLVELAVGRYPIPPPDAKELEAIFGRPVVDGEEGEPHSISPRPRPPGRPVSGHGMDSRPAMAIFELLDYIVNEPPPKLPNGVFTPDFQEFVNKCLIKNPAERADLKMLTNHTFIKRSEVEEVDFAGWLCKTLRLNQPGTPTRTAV

[36] = biological target: Glycogen synthase kinase-3 alpha (Homo sapiens, UniProt P49840); type: functional;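 note: GSK3A result taken from a broad kinome-wide kinase panel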
[37] = biological target: Insulin-like growth factor 1 receptor (Homo sapiens, UniProt P08069); assay: Navigating the Kinome. Panel member name: IGF1R; type: functional
[38] = biological target: T4, High affinity choline transporter 1 (Homo sapiens, UniProt Q9GZV3); assay: CHT activators, dose response, cell-based, 10-point CRC, membrane potential dye (AID 602376); type: functional
T4 sequence (Q9GZV3 whole entry): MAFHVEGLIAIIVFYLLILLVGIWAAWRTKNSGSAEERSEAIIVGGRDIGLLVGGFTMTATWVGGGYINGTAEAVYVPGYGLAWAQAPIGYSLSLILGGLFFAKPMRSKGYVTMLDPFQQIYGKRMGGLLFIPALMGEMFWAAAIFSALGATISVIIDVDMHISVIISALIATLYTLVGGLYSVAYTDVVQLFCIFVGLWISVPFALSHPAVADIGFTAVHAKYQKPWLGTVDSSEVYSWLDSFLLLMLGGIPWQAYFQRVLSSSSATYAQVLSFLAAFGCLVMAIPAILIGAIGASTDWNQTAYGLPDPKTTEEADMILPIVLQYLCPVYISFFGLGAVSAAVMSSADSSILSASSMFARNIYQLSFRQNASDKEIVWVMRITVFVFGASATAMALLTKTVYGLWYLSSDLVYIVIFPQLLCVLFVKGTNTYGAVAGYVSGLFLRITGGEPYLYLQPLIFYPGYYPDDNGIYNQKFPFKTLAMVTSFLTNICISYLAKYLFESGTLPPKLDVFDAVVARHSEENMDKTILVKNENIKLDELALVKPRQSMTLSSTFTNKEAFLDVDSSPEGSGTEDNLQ

Chain of Serine/threonine-protein kinase Chk2 (O96017 whole entry): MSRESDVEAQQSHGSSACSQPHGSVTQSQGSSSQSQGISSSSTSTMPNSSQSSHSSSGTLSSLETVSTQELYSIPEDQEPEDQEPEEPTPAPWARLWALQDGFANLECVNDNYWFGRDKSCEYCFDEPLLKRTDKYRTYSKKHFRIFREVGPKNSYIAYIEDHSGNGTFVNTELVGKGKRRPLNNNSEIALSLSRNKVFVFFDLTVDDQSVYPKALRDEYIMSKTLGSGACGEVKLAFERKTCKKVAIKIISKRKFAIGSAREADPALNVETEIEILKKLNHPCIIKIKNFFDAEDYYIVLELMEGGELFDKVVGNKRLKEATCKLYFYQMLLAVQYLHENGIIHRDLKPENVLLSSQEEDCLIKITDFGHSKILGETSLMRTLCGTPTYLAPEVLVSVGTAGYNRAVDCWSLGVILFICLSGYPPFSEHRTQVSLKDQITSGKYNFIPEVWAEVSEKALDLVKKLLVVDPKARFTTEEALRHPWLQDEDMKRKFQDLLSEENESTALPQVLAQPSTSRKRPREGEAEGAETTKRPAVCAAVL

## O=C(Nc1cnccn1)Nc1ccnc2c(F)cccc12
[1]
  Ki: > 7.94 µM (inactive)

## CN(C)c1ncnc2nc[nH]c12 [DIMETHYLADENINE]
[2]
  Ki: 3.98 µM (active)
[3]
  Ki: 12.6 µM (active)
[4]
  Ki: 15.8 µM (active)
[5]
  Ki: 5.01 µM (active)
[6]
  Ki: 12.6 µM (active)
Aurora kinase A
  Ki: 3.98 µM (active)
[7]
  Ki: 5.01 µM (active)

## CN1CCc2nc(SCc3ccc(Cl)cc3)c(C#N)c(-c3cccs3)c2C1
[8]
  IC50: 26.3 µM (inactive)
cells
  EC50: 0.014 µM (active)
[9]
  IC50: > 66.6 µM (inactive)
[10]
  EC50: < 0.1 µM (active)
[11]
  EC50: 10.1 µM (active)
Protein RecA
  EC50: 4.41 µM (active)
Apelin receptor
  IC50: > 66.6 µM (inactive)
[12]
  AC50: > 380 µM (inactive)
[13]
  EC50: > 60 µM (not active)

## O=S(=O)(c1ccccc1)N1N=C(c2ccc(O)cc2)CC1c1ccco1 (stereo not given)
[14]
  AC50: 19.5 µM (active)

## Nc1ncnc2c1c(-c1cnc3[nH]ccc3c1)nn2C1CCCC1
[15]
  Ki: 0.0631 µM (active)
[16]
  Ki: 1 µM (active)
Activin receptor type-1
  Ki: 0.0631 µM (active)
[17]
  Ki: 0.316 µM (active)
[18]
  Ki: 0.0631 µM (active)
[19]
  Ki: 1 µM (active)
Focal adhesion kinase 1
  Ki: 1.26 µM (active)
[20]
  Ki: 0.158 µM (active)
LIM domain kinase 1
  Ki: 0.158 µM (active)
[21]
  Ki: 0.1 µM (active)
[22]
  Ki: 0.0794 µM (active)
[23]
  Ki: 0.251 µM (active)
[24]
  Ki: > 2.51 µM (inactive)
[25]
  Ki: 0.501 µM (active)
[26]
  Ki: 0.0398 µM (active)
[27]
  Ki: 1.26 µM (active)
[28]
  Ki: 0.794 µM (active)
[29]
  Ki: 0.2 µM (active)
[30]
  Ki: 1.26 µM (active)
[31]
  Ki: 0.126 µM (active)
[32]
  Ki: 0.158 µM (active)
[33]
  Ki: 0.316 µM (active)
[34]
  Ki: > 3.16 µM (inactive)
[35]
  Ki: 1 µM (active)
[36]
  Ki: 2 µM (active)
[37]
  Ki: 0.398 µM (active)

## CC(c1ccccc1)N(CCC(c1ccccc1)C1CCOC(C)(C)C1)C(=O)c1ccco1 (stereo not given)
[38]
  EC50: 5.67 µM (active)
